Measurements from US9127303B2, “Method for detection of beta-D-glucuronidase activity in a sample” (Biosynth AG, priority 2011, dated 2015).

What was measured:
[1] = tested on: beta-D-glucuronidase positive strains (Escherichia coli); experiment: Detection of microbial beta-D-glucuronidase activity in broth cultures in microtiter plates; assay type: cell-based; settings: NB, 0.1 mM, 37° C., 20 hours; for Fluorescence (excitation 570 nm, emission 600 nm) over time: about 10 cfu
Procedure: (§1) Fluorescence in arbitrary units (RFU, relative fluorescence units) is plotted vs. time (h).
(§2) Wells of a microtiter plate were filled with Nutrient Broth (NB: 5 g/l peptone, 5 g/l NaCl, 2 g/l yeast extract, 1 g/l beef extract, pH 7.4) containing Resorufin-beta-D-glucuronic acid or Resorufin-beta-D-glucuronic acid methyl ester at concentrations of 0.1 mM. The wells were inoculated with about 10 cfu of cultures pregrown over night on NB and incubated at 37° C. for 20 hours. Fluorescence was measured every 20 minutes at an excitation wavelength of 570 nm and an emission wavelength of 600 nm (FIG. 1).

E. coli culture = experiment: Detection of microbial beta-D-glucuronidase in preincubated medium; assay type: cell-based; settings: NB with 0.2 mM, preincubated 21 h, 3.5 h, 0 h at 37° C., E. coli about 10^8 cfu/ml
Procedure: (§3) The media with the Resorufin-beta-D-glucuronic acid methyl ester were preincubated for different time periods. Measurements were done in microtiter plates at 37° C. in a Spectramax M5 platereader (λex=570 nm, λem=600 nm). Fluorescence in arbitrary units (RFU, relative fluorescence units) is plotted vs. time (min).
(§4) Wells of a microtiter plate were filled with 100 μl Nutrient Broth (NB: 5 g/l peptone, 5 g/l NaCl, 2 g/l yeast extract, 1 g/l beef extract, pH 7.4) containing Resorufin-beta-D-glucuronic acid or Resorufin-beta-D-glucuronic acid methyl ester at concentrations of 0.2 mM. The wells were incubated for different times (21 h, 3.5 h, 0 h) at 37° C. After incubation, 100 μl of an E. coli culture pregrown over night on NB was added (about 10^8 cfu/ml). Fluorescence was measured every 1.5 minutes at an excitation wavelength of 570 nm and an emission wavelength of 600 nm (FIG. 3). The longer the preincubation time of the medium, the more Resorufin-beta-D-glucuronic acid originated from the Resorufin-beta-D-glucuronic acid methyl ester through hydrolysis.

[2] = biological target: beta-D-glucuronidase (type VII-A from E. coli) (Escherichia coli, UniProt P05804); experiment: Enzymatic assay with purified beta-D-glucuronidase; assay type: biochemical; settings: 0.1 mM, pH 6.8, 37° C., 1 hour
Sequence of beta-D-glucuronidase (type VII-A from E. coli) (P05804 whole entry): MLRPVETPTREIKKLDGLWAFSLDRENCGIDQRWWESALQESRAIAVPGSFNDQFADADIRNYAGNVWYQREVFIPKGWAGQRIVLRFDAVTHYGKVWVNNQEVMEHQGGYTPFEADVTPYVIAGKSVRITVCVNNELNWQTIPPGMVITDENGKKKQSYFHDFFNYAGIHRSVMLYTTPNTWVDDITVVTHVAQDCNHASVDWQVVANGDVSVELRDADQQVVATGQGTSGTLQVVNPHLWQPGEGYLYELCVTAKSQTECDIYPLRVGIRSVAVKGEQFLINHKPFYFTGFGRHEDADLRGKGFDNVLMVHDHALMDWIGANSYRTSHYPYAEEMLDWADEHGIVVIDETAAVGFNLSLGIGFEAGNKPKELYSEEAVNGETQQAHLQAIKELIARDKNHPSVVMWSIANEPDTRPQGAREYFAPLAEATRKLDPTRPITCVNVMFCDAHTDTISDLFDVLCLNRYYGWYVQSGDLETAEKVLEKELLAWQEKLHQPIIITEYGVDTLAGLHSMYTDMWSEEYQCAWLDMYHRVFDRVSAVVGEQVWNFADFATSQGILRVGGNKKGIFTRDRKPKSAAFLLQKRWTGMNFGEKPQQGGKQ
Procedure: as §3, with “Resorufin-beta-D-glucuronic acid or” for “The media with the”, “was incubated in presence of glucuronidase, esterase, both enzymes or without enzyme.” for “were preincubated for different time periods.”
(§5) Wells of a microtiter plate were filled with buffer (35 mM potassium phosphate, 4.7 mg/ml bovine serum albumin, pH 6.8) containing Resorufin-beta-D-glucuronic acid or Resorufin-beta-D-glucuronic acid methyl ester at concentrations of 0.1 mM. To the wells were added either a) 0.3 unit beta-D-glucuronidase (type VII-A from E. coli) or b) 10 units esterase (from porcine liver) or c) 0.3 unit beta-D-glucuronidase and 10 units esterase or d) no enzyme. The microtiter plate was incubated at 37° C. for 1 hour. Fluorescence was measured every 1.5 minutes at an excitation wavelength of 570 nm and an emission wavelength of 600 nm (FIG. 2).

Staphylococcus aureus = experiment: Detection of microbial beta-D-glucuronidase in broth cultures in test tubes; assay type: cell-based; design: key: positive (pink colour); negative (yellow colour); settings: 1 strain, NB, 0.1 mM, 37° C., 16 hours
Procedure: (§6) Resorufin-beta-D-glucuronic acid or Resorufin-beta-D-glucuronic acid methyl ester was added to test tubes containing 3 ml of Nutrient Broth (NB: 5 g/l peptone, 5 g/l NaCl, 2 g/l yeast extract, 1 g/l beef extract, pH 7.4) or Tryptone Bile Broth (TBB: 20 g/l tryptone, 1.5 g/l bile salts No. 3) at a concentration of 0.1 mM. Tubes were inoculated with cultures pregrown over night on NB and incubated at 37° C. for 16 hours. Tubes were scored visually for beta-D-glucuronidase activity as positive (pink colour) or negative (yellow colour). Both substrates gave the same results for all strains tested (Table 1), showing that the Resorufin-beta-D-glucuronic acid methyl ester can be used in place of the Resorufin-beta-D-glucuronic acid for detection of E. coli.

Serratia marcescens = experiment: as above; assay type: cell-based; design: key: positive (pink colour); negative (yellow colour); settings: 1 strain, TBB, 0.1 mM, 37° C., 16 hours
Procedure: as §6

Citrobacter freundii = experiment: as above; assay type: cell-based; design: key: positive (pink colour); negative (yellow colour); settings: 1 strain, TBB, 0.1 mM, 37° C., 16 hours
Procedure: as §6

Vibrio parahaemolyticus = experiment: as above; assay type: cell-based; design: key: positive (pink colour); negative (yellow colour); settings: 1 strain, NB, 0.1 mM, 37° C., 16 hours
Procedure: as §6

Bacillus cereus = experiment: as above; assay type: cell-based; design: key: positive (pink colour); negative (yellow colour); settings: 1 strain, NB, 0.1 mM, 37° C., 16 hours
Procedure: as §6

Proteus vulgaris = experiment: as above; assay type: cell-based; design: key: positive (pink colour); negative (yellow colour); settings: 1 strain, NB, 0.1 mM, 37° C., 16 hours
Procedure: as §6

Enterococcus faecalis = experiment: as above; assay type: cell-based; design: key: positive (pink colour); negative (yellow colour); settings: 1 strain, TBB, 0.1 mM, 37° C., 16 hours
Procedure: as §6

Salmonella Enteritidis = experiment: as above; assay type: cell-based; design: key: positive (pink colour); negative (yellow colour); settings: 1 strain, TBB, 0.1 mM, 37° C., 16 hours
Procedure: as §6

Hafnia alvei = experiment: as above; assay type: cell-based; design: key: positive (pink colour); negative (yellow colour); settings: 1 strain, NB, 0.1 mM, 37° C., 16 hours
Procedure: as §6

Salmonella Typhimurium = experiment: as above; assay type: cell-based; design: key: positive (pink colour); negative (yellow colour); settings: 1 strain, NB, 0.1 mM, 37° C., 16 hours
Procedure: as §6

Escherichia coli O157:H7 = experiment: as above; assay type: cell-based; design: key: positive (pink colour); negative (yellow colour); settings: Escherichia coli O157:H7, 2 strains, TBB, 0.1 mM, 37° C., 16 hours
Procedure: as §6

Aeromonas hydrophila = experiment: as above; assay type: cell-based; design: key: positive (pink colour); negative (yellow colour); settings: 1 strain, TBB, 0.1 mM, 37° C., 16 hours
Procedure: as §6

Escherichia coli = experiment: as above; assay type: cell-based; design: key: positive (pink colour); negative (yellow colour); settings: 19 strains, TBB, 0.1 mM, 37° C., 16 hours
Procedure: as §6

Pseudomonas aeruginosa = experiment: as above; assay type: cell-based; design: key: positive (pink colour); negative (yellow colour); settings: 1 strain, TBB, 0.1 mM, 37° C., 16 hours
Procedure: as §6

[3] = tested on: Staphylococcus haemolyticus; experiment: as above; assay type: cell-based; design: key: positive (pink colour); negative (yellow colour); settings: 1 strain, NB, 0.1 mM, 37° C., 16 hours
Procedure: as §6

Enterobacter cloacae = experiment: as above; assay type: cell-based; design: key: positive (pink colour); negative (yellow colour); settings: 1 strain, NB, 0.1 mM, 37° C., 16 hours
Procedure: as §6

Acinetobacter baumanii = experiment: as above; assay type: cell-based; design: key: positive (pink colour); negative (yellow colour); settings: 1 strain, NB, 0.1 mM, 37° C., 16 hours
Procedure: as §6

Yersinia enterocolitica = experiment: as above; assay type: cell-based; design: key: positive (pink colour); negative (yellow colour); settings: 1 strain, NB, 0.1 mM, 37° C., 16 hours
Procedure: as §6

Klebsiella pneumoniae = experiment: as above; assay type: cell-based; design: key: positive (pink colour); negative (yellow colour); settings: 1 strain, TBB, 0.1 mM, 37° C., 16 hours
Procedure: as §6

Enterobacter aerogenes = experiment: as above; assay type: cell-based; design: key: positive (pink colour); negative (yellow colour); settings: 1 strain, TBB, 0.1 mM, 37° C., 16 hours
Procedure: as §6

[4] = tested on: beta-D-glucuronidase negative strains; experiment: Detection of microbial beta-D-glucuronidase activity in broth cultures in microtiter plates; assay type: cell-based, Citrobacter freundii, Salmonella enteritidis; settings: NB, 0.1 mM, 37° C., 20 hours
Procedure: as §1, §2

[5] = tested on: esterase (from porcine liver); experiment: Enzymatic assay with esterase only; assay type: biochemical; settings: 10 units esterase only, 0.1 mM, pH 6.8, 37° C., 1 hour
Procedure: as §3, with “Resorufin-beta-D-glucuronic acid or” for “The media with the”, “was incubated in presence of glucuronidase, esterase, both enzymes or without enzyme.” for “were preincubated for different time periods.”
as §5

[6] = Hydrolysis of the methyl ester in Nutrient Broth medium; assay type: physicochemical; settings: pH 7.4, 37° C.
Procedure: as §4

[7] = 0.3 unit beta-D-glucuronidase and 10 units esterase
[8] = 0.3 unit beta-D-glucuronidase without esterase

Compound | Fluorescence (excitation 570 nm, emission 600 nm) over time [1] | Fluorescence (excitation 570 nm, emission 600 nm) over time [2, 7] | Fluorescence (excitation 570 nm, emission 600 nm) over time [2, 8] | Result, beta-D-glucuronidase activity scored visually (Staphylococcus aureus) | Result, beta-D-glucuronidase activity scored visually (Serratia marcescens) | Result, beta-D-glucuronidase activity scored visually (Citrobacter freundii) | Result, beta-D-glucuronidase activity scored visually (Vibrio parahaemolyticus) | Result, beta-D-glucuronidase activity scored visually (Bacillus cereus) | Result, beta-D-glucuronidase activity scored visually (Proteus vulgaris) | Result, beta-D-glucuronidase activity scored visually (Enterococcus faecalis) | Result, beta-D-glucuronidase activity scored visually (Salmonella Enteritidis) | Result, beta-D-glucuronidase activity scored visually (Hafnia alvei) | Result, beta-D-glucuronidase activity scored visually (Salmonella Typhimurium) | Result, beta-D-glucuronidase activity scored visually (Escherichia coli O157:H7) | Result, beta-D-glucuronidase activity scored visually (Aeromonas hydrophila) | Result, beta-D-glucuronidase activity scored visually (Escherichia coli) | Result, beta-D-glucuronidase activity scored visually (Pseudomonas aeruginosa) | Result, beta-D-glucuronidase activity scored visually [3] | Result, beta-D-glucuronidase activity scored visually (Enterobacter cloacae) | Result, beta-D-glucuronidase activity scored visually (Acinetobacter baumanii) | also measured
COC(=O)[C@H]1O[C@@H](Oc2ccc3nc4ccc(=O)cc-4oc3c2)[C@H](O)[C@@H](O)[C@@H]1O [Resorufin-beta-D-glucuronic acid methyl ester] | increase in fluorescence | fast increase of fluorescence | only a slow increase of fluorescence | negative | negative | negative | negative | negative | negative | negative | negative | negative | negative | negative | negative | positive | negative | negative | negative | negative | Speed of increase in fluorescence compared with Resorufin-beta-D-glucuronic acid [1]: a little slower; Fluorescence signal after adding E. coli culture, compared with Resorufin-beta-D-glucuronic acid medium (E. coli culture): gets closer to the signal from media originally containing the Resorufin-beta-D-glucuronic acid with longer preincubation time; Result, beta-D-glucuronidase activity scored visually (Yersinia enterocolitica): negative; Result, beta-D-glucuronidase activity scored visually (Klebsiella pneumoniae): negative; Result, beta-D-glucuronidase activity scored visually (Enterobacter aerogenes): negative; Fluorescence (excitation 570 nm, emission 600 nm) over time [4]: only low background signal; Fluorescence (excitation 570 nm, emission 600 nm) over time [5]: low background signal; Hydrolysis of the methyl ester to Resorufin-beta-D-glucuronic acid in medium [6]: surprisingly fast
O=C([O-])C1OC(Oc2ccc3nc4ccc(=O)cc-4oc3c2)C(O)C(O)C1O.[Na+] [Resorufin-beta-D-glucuronic acid, reference compound] | increase in fluorescence | fast increase of fluorescence | fast increase of fluorescence | negative | negative | negative | negative | negative | negative | negative | negative | negative | negative | negative | negative | positive | negative | negative | negative | negative | Result, beta-D-glucuronidase activity scored visually (Yersinia enterocolitica): negative; Result, beta-D-glucuronidase activity scored visually (Klebsiella pneumoniae): negative; Result, beta-D-glucuronidase activity scored visually (Enterobacter aerogenes): negative; Fluorescence (excitation 570 nm, emission 600 nm) over time [4]: only low background signal; Fluorescence (excitation 570 nm, emission 600 nm) over time [5]: low background signal
